Data from the supplement of paper PMC11061612.

Key:
[1] = test system: CAL-148 (Breast Carcinoma); test: Bliss excess, mean over the matrix (fraction); higher = more synergy
How it was run: (§1)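 After 24 hours at 37°C and 5% CO2 in 1536-well plates, cells in DMEM/F12 or RPMI plus 10% FBS received two-drug dose matrices for 72 hours. Viability came from CellTiter-Glo 2.0 luminescence and was scaled as inhibition, anchored at 0 by vehicle wells and at 1 by blank wells. Combination Emax is taken as the second-highest inhibition in the matrix, and Bliss excess as the observed combination effect less EA + EB − EA·EB, with EA and EB the single-agent effects.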

[2] = test system: CCRF-CEM (T-Lymphoblastic Leukemia); test: as above
How it was run: as §1

[3] = test system: CaR-1 (Colorectal Carcinoma); test: as above
How it was run: as §1

[4] = test system: Calu-3 (Lung Adenocarcinoma); test: as above
How it was run: as §1

[5] = test system: DoTc2-4510 (Cervical Carcinoma); test: as above
How it was run: as §1

[6] = test system: HT-1376 (Bladder Carcinoma); test: as above
How it was run: as §1

[7] = test system: Hs-578-T (Breast Carcinoma); test: as above
How it was run: as §1

KELLY (Neuroblastoma) [8] = test: as above
How it was run: as §1

[9] = test system: LS-180 (Colorectal Carcinoma); test: as above
How it was run: as §1

[10] = test system: ME-1 (Acute Myeloid Leukemia); test: as above
How it was run: as §1

NB10 (Neuroblastoma) = test: as above
How it was run: as §1

[11] = test system: NCI-H82 (Small Cell Lung Carcinoma); test: as above
How it was run: as §1

[12] = test system: RO82-W-1 (Thyroid Gland Carcinoma); test: as above
How it was run: as §1

[13] = test system: TE-15 (Esophageal Squamous Cell Carcinoma); test: as above
How it was run: as §1

[14] = test system: TE-9 (Esophageal Squamous Cell Carcinoma); test: as above
How it was run: as §1

[15] = test system: UM-UC-3 (Bladder Carcinoma); test: as above
How it was run: as §1

[16] = test system: CaR-1 (Colorectal Carcinoma); test: combination Emax (second highest fraction inhibited in the dose matrix, 72 h); higher = more inhibition; extreme values may be limits of the assay
How it was run: as §1

KELLY (Neuroblastoma) [17] = test: as above
How it was run: as §1

[18] = test system: RO82-W-1 (Thyroid Gland Carcinoma); test: as above
How it was run: as §1

T98G (Glioblastoma) = test: as above
How it was run: as §1
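Wherever Bliss excess, mean over the matrix is given: after 72 h of two-drug dosing.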

SMILES	Bliss excess [1]	Bliss excess [2]	Bliss excess [3]	Bliss excess [4]	Bliss excess [5]	Bliss excess [6]	Bliss excess [7]	Bliss excess (KELLY (Neuroblastoma) [8])	Bliss excess [9]	Bliss excess [10]	Bliss excess (NB10 (Neuroblastoma))	Bliss excess [11]	Bliss excess [12]	Bliss excess [13]	Bliss excess [14]	Bliss excess [15]	combination Emax [16]	combination Emax (KELLY (Neuroblastoma) [17])	combination Emax [18]	combination Emax (T98G (Glioblastoma))
C[C@@H]1COCCN1c1cc(C2([S@](C)(=N)=O)CC2)nc(-c2ccnc3[nH]ccc23)n1 [AZD6738] + C1CC(C1)(C(=O)[O-])C(=O)[O-].N.N.[Pt+2] [Carboplatin] (first compound max 10 µM, 7x7, partner max 10 µM)	-0.11	-0.0161	-0.0464	-0.0397	-0.0562	-0.039	-0.0559	-0.0516	0.0068	-0.0565	-0.0562	-0.117	-0.0333	-0.0208	-0.0215	-0.0213	0.385	0.944	0.151	0.886
Cc1cc2ncnn2cc1Nc1ncc2c(n1)n(C1CCOCC1)c(=O)n2C [AZD7648] + COc1cc([C@@H]2c3cc4c(cc3[C@@H](O[C@@H]3O[C@@H]5CO[C@@H](C)O[C@H]5[C@H](O)[C@H]3O)[C@H]3COC(=O)[C@H]23)OCO4)cc(OC)c1O [Etoposide] (first compound max 10 µM, 7x7, partner max 10 µM)	0.163	0.104	0.0253	0.1	0.116	-0.0021	0.0777	0.0734	0.0183	-0.0301	0.0154	0.0583	0.0049	0.0823	0.0158	0.105	0.661	0.793	0.288	0.741
CN(CCO)CC[C@H](CSc1ccccc1)Nc1ccc(S(=O)(=O)NC(=O)c2ccc(N3CCC([C@@H](O)c4ccccc4-c4ccc(Cl)cc4)CC3)cc2)cc1S(=O)(=O)C(F)(F)F [AZD4320] + Nc1ccn([C@@H]2O[C@H](CO)[C@@H](O)C2(F)F)c(=O)n1 [Gemcitabine] (first compound max 1 µM, 7x7, partner max 0.3 µM)	0.0502	0.0061	0.0125	0.0076	0.0764	-0.0644	0.14	0.0014	-0.0907	0.0049	-0.0457	0.016	-0.0237	0.0164	0.0151	-0.0229	0.708	0.999	0.572	0.861
N#Cc1cnc(Nc2cc(NC[C@H]3CNCCO3)c(C(F)(F)F)cn2)cn1 [SRA737] + O=c1[nH]cc(F)c(=O)[nH]1 [5-Fluorouracil] (first compound max 10 µM, 7x7, partner max 20 µM)	0.0099	0.0179	-0.0495	-0.0137	-0.0201	-0.0591	0.0056	0.0153	-0.053	-0.0532	-0.0036	-0.111	-0.0283	-0.0033	0.0599	-0.0007	0.229	1	0.144	0.837
C[C@@H](Nc1cc(F)cc(F)c1)c1cc(C(=O)N(C)C)cc2c(=O)cc(N3CCOCC3)oc12 [AZD8186] + CC(=O)c1c(C)c2cnc(Nc3ccc(N4CCNCC4)cn3)nc2n(C2CCCC2)c1=O [Palbociclib] (first compound max 10 µM, 7x7, partner max 10 µM)	0.033	-0.0167	-0.0054	-0.0036	-0.0639	-0.037	-0.0091	0.0897	0.0004	0.0065	0.0425	-0.0338	0.033	-0.0044	-0.0589	0.131	0.471	0.434	0.27	0.657
Cc1c2c(nn1C)CSCc1cc(n(C)n1)CSc1cc(c3ccccc3c1)OCCCc1c(C(=O)O)n(C)c3c-2c(Cl)ccc13 [AZD5991] + Nc1ccn([C@@H]2O[C@H](CO)[C@@H](O)C2(F)F)c(=O)n1 [Gemcitabine] (first compound max 1 µM, 7x7, partner max 0.3 µM)	0.122	-0.0164	-0.0383	-0.0191	-0.0282	-0.03	0.0298	-0.0253	-0.061	-0.0612	-0.0006	0.003	-0.0453	0	-0.0201	-0.0402	0.629	1	0.0885	0.5
N#Cc1cnc(Nc2cc(NC[C@H]3CNCCO3)c(C(F)(F)F)cn2)cn1 [SRA737] + CCc1c2c(nc3ccc(O)cc13)-c1cc3c(c(=O)n1C2)COC(=O)[C@]3(O)CC [SN-38] (first compound max 10 µM, 7x7, partner max 0.3 µM)	-0.0602	-0.034	-0.0711	-0.0477	0.0093	0.0047	0.114	-0.0429		0.0352	-0.141	0.0325	-0.04	-0.0928	-0.0181	-0.0017	0.791	1	0.214	0.921
CS(=O)(=O)CCNCc1ccc(-c2ccc3ncnc(Nc4ccc(OCc5cccc(F)c5)c(Cl)c4)c3c2)o1 [Lapatinib] + Cn1cnc2c(F)c(Nc3ccc(Br)cc3Cl)c(C(=O)NOCCO)cc21 [Selumetinib] (first compound max 10 µM, 7x7, partner max 10 µM)	0.0085	-0.0051	0.0337	-0.009	-0.0459	0.0188	-0.0311	-0.0152	0.0947	0.0694	0.0376	-0.0082	-0.0093	-0.0388	-0.0341	0.0547	0.426	0.936	0.193	0.25
C[C@@H](Oc1cc(-c2cnn(C3CCNCC3)c2)cnc1N)c1c(Cl)ccc(F)c1Cl [Crizotinib] + Cn1cnc2c(F)c(Nc3ccc(Br)cc3Cl)c(C(=O)NOCCO)cc21 [Selumetinib] (first compound max 10 µM, 7x7, partner max 10 µM)	-0.0173	-0.0682	0.0092	-0.0507	-0.0514	-0.0419	-0.0131	0.0644	-0.0236	0.0624	-0.0221	-0.0702	-0.0227	-0.021	-0.0199	-0.0136	0.491	0.98	0.197	0.427
CN(CCO)CC[C@H](CSc1ccccc1)Nc1ccc(S(=O)(=O)NC(=O)c2ccc(N3CCC([C@@H](O)c4ccccc4-c4ccc(Cl)cc4)CC3)cc2)cc1S(=O)(=O)C(F)(F)F [AZD4320] + CC(=O)O[C@H]1C(=O)[C@@]2(C)[C@H]([C@H](OC(=O)c3ccccc3)[C@]3(O)C[C@H](OC(=O)[C@H](O)[C@@H](NC(=O)c4ccccc4)c4ccccc4)C(C)=C1C3(C)C)[C@]1(OC(C)=O)CO[C@@H]1C[C@@H]2O [Paclitaxel] (first compound max 1 µM, 7x7, partner max 3 µM)	0.0761	-0.0072	0.0892	-0.0045	0.111	0.0857	0.047	-0.0068	-0.0382	0.0994	0.0462	-0.0552	0.332	0.0118	0.0929	0.192	0.911	1	0.947	0.993
Cc1nc(-c2cn3c(n2)-c2ccc(-c4cnn(C(C)(C)C(N)=O)c4)cc2OCC3)n(C(C)C)n1 [Taselisib] + O=C(Nc1ccc2[nH]nc(-c3ccncc3)c2c1)[C@@H]1CCN(CC(=O)N2CCN(c3ccc(-c4ncccn4)cc3)CC2)C1 [SCH772984] (first compound max 10 µM, 7x7, partner max 5 µM)	0.103	0.124	0.0708	-0.0287	0.0435	-0.0046	0.0748	0.135	0.0776	0.0001	0.0751	-0.0251	0.0009	-0.0011	0.0303	0.0679	0.872	0.635	0.193	0.851
N#Cc1cnc(Nc2cc(NC[C@H]3CNCCO3)c(C(F)(F)F)cn2)cn1 [SRA737] + C=CCn1c(=O)c2cnc(Nc3ccc(N4CCN(C)CC4)cc3)nc2n1-c1cccc(C(C)(C)O)n1 [AZD1775] (first compound max 10 µM, partner max 1 µM)	0.184	0.0688	-0.0239	0.0228	0.074	0.0357	0.0771	0.0387	0.0475	0.0456	0.105	0.0115	-0.0441	0.0209	0.0457	0.0749	0.408	1	0.116	0.9
O=C(c1cc(Cc2n[nH]c(=O)c3ccccc23)ccc1F)N1CCN(C(=O)C2CC2)CC1 [Olaparib] + COc1nnc2ccc(N3CCC(c4ccc(OCCN5CCN(C)C(=O)[C@H]5C)cc4)CC3)nn12 [AZD5153] (first compound max 10 µM, 7x7, partner max 1 µM)	-0.0366	0.0457	-0.105	-0.0339	-0.0755	-0.0425	-0.0551	-0.042	-0.0495	0.0123	-0.0558	-0.0326	-0.0002	-0.0671	-0.0663	-0.0014	0.277	0.397	0.274	0.408
O=C(c1cc(Cc2n[nH]c(=O)c3ccccc23)ccc1F)N1CCN(C(=O)C2CC2)CC1 [Olaparib] + Cc1c2c(nn1C)CSCc1cc(n(C)n1)CSc1cc(c3ccccc3c1)OCCCc1c(C(=O)O)n(C)c3c-2c(Cl)ccc13 [AZD5991] (first compound max 10 µM, 7x7, partner max 1 µM)	-0.005	0.0053	-0.0322	-0.0453	-0.0397	-0.0392	-0.0621	0.0826	-0.0207	-0.0085	-0.0166	-0.0755	-0.0375	-0.0392	-0.0397	-0.0182	0.13	0.934	0.147	0.223
